Laboratory results reported in US11564924B2, “Pharmaceutical composition formed by combining pyridoxamine compound and thiamine compound” (RENASCIENCE CO., LTD., priority 2014, dated 2023).

Tests used:
[1] = system: vitamin B1 in human whole blood; test: In vitro effect on vitamin B1 concentration in human whole blood; details: human whole blood, 5, 50, 500 μg/mL, 37° C.
Text: In addition, as described in Experiment Example 1 and Experiment Example 2, administration of a pyridoxamine compound increases not only the serum pyridoxamine concentration, but also the serum pyridoxal concentration, and thus, pyridoxamine and pyridoxal were both used as test substances for the investigation.
Blood was collected from a human using EDTA⋅2K as an anticoagulant. In addition, pyridoxamine dihydrochloride (Sigma-Aldrich Japan) was used as pyridoxamine, and pyridoxal hydrochloride (Nacalai Tesque, Inc.) was used as pyridoxal. They were dissolved at 0.5, 5, and 50 mg/mL in physiological saline to prepare test solutions. 10 μL of each test solution was individually added per mL of the whole blood collected above (test samples). The final concentrations of each test substance in the test samples were 5, 50, 500 μg/mL. Further, a vehicle was prepared by adding 10 μl of physiological saline to 1 ml of the whole blood. The vehicle and the test samples were incubated at 37° C. for 1 hour or 16 hours and then immediately frozen. Measurement of the vitamin B1 concentrations in the whole blood before the start of the incubation to which neither the physiological saline nor any test solution was added (baseline: indicated by “BL” in FIG. 4), and in the vehicle and in each test sample after the incubation, was outsourced to SRL Inc., and the measurement was performed using LC/MS/MS.

vitamin B1 = test: Whole blood vitamin B1 amount in schizophrenia patients during drug administration (LC/MS/MS); format: in vivo, human
Experimental: Measurement of the amount of vitamin B1 in whole blood (blood collection with heparin) was outsourced to SRL Inc., and the measurement was performed using LC/MS/MS.

[2] = system: Wernicke's encephalopathy; test: Wernicke's encephalopathy findings (MRI of the brain, symptoms) during drug administration; format: in vivo, human
Experimental: Immediately after the patient was suspected of having Wernicke's encephalopathy, oral administration of a thiamine compound (fursultiamine (Takeda Pharmaceutical Company Limited)) at a dose of 75 mg/day was initiated (administered once a day) and continued every day.
Immediately after the patient was suspected of having Wernicke's encephalopathy, intravenous administration of a thiamine compound (fursultiamine (Takeda Pharmaceutical Company Limited)) (300 mg/day) was performed, and then (from 10 weeks after the start of drug administration), oral administration of the thiamine compound at a dose of 100 to 50 mg/day was continued.

Structure (SMILES): Cc1ncc(CO)c(C=O)c1O.Cl [pyridoxal hydrochloride]
- change in whole blood vitamin B1 concentration ([1]; 1 hour incubation): decrease in the vitamin B1 concentration in a manner dependent on the concentration of pyridoxal hydrochloride
- change in whole blood vitamin B1 concentration ([1]; 16 hours incubation): decrease in the vitamin B1 concentration in a manner dependent on the concentration of pyridoxal hydrochloride

Structure (SMILES): CC(=C(CCO)SSCC1CCCO1)N(C=O)Cc1cnc(C)nc1N (stereo in doubt) [fursultiamine]
- whole blood vitamin B1 amount (vitamin B1; patient ID No. 3, 12 weeks after the start of drug administration (6 weeks after start of fursultiamine 75 mg/day oral), pyridoxamine compound continued): 135 ng/mL
- whole blood vitamin B1 amount (vitamin B1; patient ID No. 6, 11 weeks after the start of drug administration (3 weeks after start of thiamine compound: 300 mg/day intravenous, then 100 to 50 mg/day oral)): 150 ng/mL
- symptom of Wernicke's encephalopathy ([2]; patient ID No. 3, 14 weeks after the start of drug administration (8 weeks after the start of the thiamine compound, 75 mg/day oral)): disappeared
- symptom of Wernicke's encephalopathy ([2]; patient ID No. 6, 11 weeks after the start of drug administration (3 weeks after the start of the thiamine compound)): disappeared
